Among the data in patent US20140051679A1, “KINASE INHIBITORS AND METHOD OF TREATING CANCER WITH SAME” (UNIVERISTY HEALTH NETWORKS, priority 2011, published 2014) are IC50 values, retold here.

What all share (format): biochemical
In one experiment the target is T1, Aurora B (Homo sapiens, UniProt Q96GD4).
T1 construct: purchased Invitrogen PV3970
The experiment can be described thus: Aurora B inhibition assay (Z-Lyte). The settings on record: 28 nM Aurora B, 128 μM ATP; read-out: IC50 Ranges Aurora B. The method, then: Aurora B inhibition was determined using the Z-Lyte assay kit from Invitrogen. The assay was performed using the recommended manufacturer's instructions with 128 μM ATP and 28 nM Aurora B (Invitrogen cat #PV3970). The % inhibition values were determined according to the manufacturer's directions and IC50 values were obtained using a non-linear 4 point logistic curve fit (XLfit4, IDBS)

The target of another experiment is T2, human PLK4 (Homo sapiens, UniProt O00444).
T2 construct: amino terminal GST fusion of residues 1-391 of human PLK4; made in house; host or cells: E. coli
T2 sequence (O00444 1-391): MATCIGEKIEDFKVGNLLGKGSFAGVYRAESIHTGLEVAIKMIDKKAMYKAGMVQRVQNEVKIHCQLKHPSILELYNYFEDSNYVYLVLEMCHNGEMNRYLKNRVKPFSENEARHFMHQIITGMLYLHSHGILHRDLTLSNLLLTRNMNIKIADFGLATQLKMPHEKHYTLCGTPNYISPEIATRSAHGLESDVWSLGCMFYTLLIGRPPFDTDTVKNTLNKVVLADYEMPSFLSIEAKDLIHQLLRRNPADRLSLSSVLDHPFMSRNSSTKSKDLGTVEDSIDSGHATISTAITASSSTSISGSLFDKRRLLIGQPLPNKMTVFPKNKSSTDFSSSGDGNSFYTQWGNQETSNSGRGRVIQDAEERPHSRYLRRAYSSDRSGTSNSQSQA
The experiment can be described thus: PLK4 inhibition assay (indirect ELISA). The settings on record: GST-PLK4 4 nM, 15 μM ATP; read-out: IC50 Ranges PLK4. The method, then:
Active PLK4 was purified from an E. coli expression system as an amino terminal GST fusion of residues 1-391 of human PLK4. The protein was purified from clarified cell extracts after induction at 15° C. overnight using glutathione sepharose, gel permeation chromatography, and ion exchange (Resource Q). The resulting protein was dephosphorylated with lambda phosphatase (NEB cat#P0753), and resolved from the phosphatase using gluthione sepharose. The dephosphorylated GST-PLK4 was stored in aliquots at −80° C. until use.
PLK4 activity was measured using an indirect ELISA detection system. GST-PLK4 (4 nM) was incubated in the presence of 15 μM ATP (Sigma cat#A7699), 50 mM HEPES-Na^2+ pH 7.5, 10 mM MgCl2, 0.01% Brij 35 (Sigma cat#03-3170), in a 96 well microtitre plate pre-coated with MBP (Millipore cat#30-011). The reaction was allowed to proceed for 30 minutes, followed by 5 washes of the plate with Wash Buffer (phosphate buffered saline supplemented with 0.2% Tween 20), and incubation for 30 minutes with a 1:3000 dilution of primary antibody (Cell Signaling cat#9381). The plate was washed 5 times with Wash Buffer, incubated for 30 minutes in the presence of secondary antibody coupled to horse radish peroxidase (BioRad cat#1721019, 1:3000 concentration), washed an additional 5 times with Wash Buffer, and incubated in the presence of TMB substrate (Sigma cat#T0440). The colourimetric reaction was allowed to continue for 5 minutes, followed by addition of stop solution (0.5 N sulphuric acid), and quantified by detection at 450 nm with either a monochromatic or filter based plate reader (Molecular Devices M5 or Beckman DTX880, respectively).
Compound inhibition was determined at either a fixed concentration (10 μM) or at a variable inhibitor concentration (typically 0.5 μM to 0.001 μM in a 10 point dose response titration). Compounds were pre-incubated in the presence of enzyme for 15 minutes prior to addition of ATP and the activity remaining quantified using the above described activity assay. The % Inhibition of a compound was determined using the following formula; % Inhibition=100×(1-(experimental value−background value)/(high activity control−background value)). The IC50 value was determined using a non-linear 4 point logistic curve fit (XLfit4, IDBS) with the formula; (A+(B/(1+((x/C)̂D)))), where A=background value, B=range, C=inflection point, D=curve fit parameter.

The target in another experiment is T3, human TTK (Homo sapiens, UniProt P33981).
T3 construct: amino terminal GST fusion of full length human TTK; purchased Invitrogen
T3 sequence (P33981 1-857): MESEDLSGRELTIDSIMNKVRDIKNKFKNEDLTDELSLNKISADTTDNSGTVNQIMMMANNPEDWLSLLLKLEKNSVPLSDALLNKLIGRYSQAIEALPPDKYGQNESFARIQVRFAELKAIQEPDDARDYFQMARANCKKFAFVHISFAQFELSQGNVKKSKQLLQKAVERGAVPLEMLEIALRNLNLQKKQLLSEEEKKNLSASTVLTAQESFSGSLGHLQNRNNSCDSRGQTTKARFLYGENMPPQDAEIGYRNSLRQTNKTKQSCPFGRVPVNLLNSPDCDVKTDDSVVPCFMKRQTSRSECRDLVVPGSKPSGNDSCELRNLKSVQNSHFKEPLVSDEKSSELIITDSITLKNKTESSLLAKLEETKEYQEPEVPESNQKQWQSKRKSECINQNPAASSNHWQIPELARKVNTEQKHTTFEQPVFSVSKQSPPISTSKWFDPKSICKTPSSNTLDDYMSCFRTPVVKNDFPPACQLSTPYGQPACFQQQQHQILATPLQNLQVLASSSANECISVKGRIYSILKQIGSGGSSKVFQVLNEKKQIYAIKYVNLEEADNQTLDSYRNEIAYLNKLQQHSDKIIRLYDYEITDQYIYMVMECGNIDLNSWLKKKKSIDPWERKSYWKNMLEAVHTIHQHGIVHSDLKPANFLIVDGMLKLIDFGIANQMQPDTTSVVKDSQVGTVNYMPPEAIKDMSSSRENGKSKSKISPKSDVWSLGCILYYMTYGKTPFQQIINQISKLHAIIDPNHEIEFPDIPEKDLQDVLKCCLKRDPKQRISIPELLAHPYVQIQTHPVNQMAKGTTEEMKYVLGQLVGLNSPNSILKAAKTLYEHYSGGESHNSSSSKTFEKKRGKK
The experiment can be described thus: TTK inhibition assay (indirect ELISA). The note with it: GST-TTK 0.68 nM, 16 μM ATP; read-out: IC50 Ranges TTK. (An ELISA detects its analyte on a solid surface through an enzyme-linked reagent.)

T1 sequence (Q96GD4 whole entry): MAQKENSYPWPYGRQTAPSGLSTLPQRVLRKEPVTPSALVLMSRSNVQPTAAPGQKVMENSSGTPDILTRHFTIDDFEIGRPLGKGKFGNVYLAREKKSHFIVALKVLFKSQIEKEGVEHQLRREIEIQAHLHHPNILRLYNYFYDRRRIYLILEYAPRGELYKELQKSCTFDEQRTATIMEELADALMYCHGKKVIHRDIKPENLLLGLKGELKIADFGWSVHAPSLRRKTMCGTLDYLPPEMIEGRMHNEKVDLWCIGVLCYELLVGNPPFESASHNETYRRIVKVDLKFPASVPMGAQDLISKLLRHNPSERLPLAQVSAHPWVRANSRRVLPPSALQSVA
Procedure for human TTK: Active TTK was purchased from Invitrogen as an amino terminal GST fusion of full length human TTK.
TTK activity was measured using an indirect ELISA detection system. GST-TTK (0.68 nM) was incubated in the presence of 16 μM ATP (Sigma cat#A7699), 50 mM Hepes pH 7.2, 1 mM EGTA, 10 mM MgCl2, and 0.1% Pluronic in a 96 well microtitre plate pre-coated with amino terminal 6 histidine, sumo tagged TTK (amino acid residues 1-275). The reaction was allowed to proceed for 30 minutes, followed by 5 washes of the plate with Wash Buffer (phosphate buffered saline supplemented with 0.2% Tween 20), and incubation for 30 minutes with a 1:3000 dilution of primary antibody (Cell Signaling cat#9381). The plate was washed 5 times with Wash Buffer, incubated for 30 minutes in the presence of secondary antibody coupled to horse radish peroxidase (BioRad cat#1721019, 1:3000 concentration), washed an additional 5 times with Wash Buffer, and incubated in the presence of TMB substrate (Sigma cat#T0440). The colourimetric reaction was allowed to continue for 5 minutes, followed by addition of stop solution (0.5 N sulphuric acid), and quantified by detection at 450 nm with either a monochromatic or filter based plate reader (Molecular Devices M5 or Beckman DTX880, respectively).
Compounds were pre-incubated in the presence of enzyme for 5 minutes prior to addition of ATP and the activity remaining quantified using the above described activity assay. The % Inhibition of a compound was determined using the following formula; % Inhibition=100×(1−(experimental value−background value)/(high activity control−background value)). The IC50 value was determined using a non-linear 4 point logistic curve fit (XLfit4, IDBS) with the formula; (A+(B/(1+((x/C)̂D)))), where A=background value, B=range, C=inflection point, D=curve fit parameter.

Consider `CN1CCC(Oc2ccc(-c3n[nH]c4ccc(C(=O)N[C@H](c5ccccc5)C5CC5)cc34)cc2)CC1` [Example A42, (S)—N-(cyclopropyl(phenyl)methyl)-3-(4-((1-methylpiperidin-4-yl)oxy)phenyl)-1H-indazole-5-carboxamide], for which the IC50 on Aurora B and at human PLK4 was not above 5 µM each time.
In the case of `O=C(NC(c1ccccn1)C1CC1)c1ccc2[nH]nc(-c3ccc(OC4CN(C5COC5)C4)cc3)c2c1` (centres unmarked) [Example A209, N-(cyclopropyl(pyridin-2-yl)methyl)-3-(4-((1-(oxetan-3-yl)azetidin-3-yl)oxy)phenyl)-1H-indazole-5-carboxamide], the half-maximal inhibitory concentration (IC50) at Aurora B, at human PLK4 and on human TTK was not above 5 µM each time.
For `CN1CCC(Oc2ccc(-c3n[nH]c4ccc(C(=O)NC(c5ccccn5)C5CCC5)cc34)cc2)CC1` (centres unmarked) [Example A210], the 50% inhibitory concentration (IC50) on Aurora B, at human PLK4 and at human TTK was not above 5 µM throughout.
In the case of `O=C(N[C@@H](c1ncccc1Cl)C1CC1)c1ccc2[nH]nc(-c3ccc(OC4CCN(C5COC5)CC4)cc3)c2c1` [Example A215, (R)—N-((3-chloropyridin-2-yl)(cyclopropyl)methyl)-3-(4-((1-(oxetan-3-yl)piperidin-4-yl)oxy)phenyl)-1H-indazole-5-carboxamide], the IC50 at human PLK4 and on human TTK was not above 5 µM in each case.
On to `CCN(C(=O)Nc1ccc2[nH]nc(-c3ccc(N4CCOCC4)cc3)c2c1)c1ccccc1` [Example A72, 1-ethyl-3-(3-(4-morpholinophenyl)-1H-indazol-5-yl)-1-phenylurea], for which the IC50 on human PLK4 and at human TTK was not above 5 µM in each case.
Consider `CC[C@@H](NC(=O)c1ccc2[nH]nc(-c3ccc(OC4CCN(C)CC4)cc3)c2c1)c1ccccc1Cl` [Example A131, (R)—N-(1-(2-chlorophenyl)propyl)-3-(4-((1-methylpiperidin-4-yl)oxy)phenyl)-1H-indazole-5-carboxamide], for which the IC50 at Aurora B and on human PLK4 was not above 5 µM each time.
On to `O=C(Nc1ccc2[nH]nc(-c3ccc(N4CCC(O)CC4)cc3)c2c1)C(c1ccsc1)N1CCCC1` (centres unmarked) [Example A9, N-(3-(4-(4-hydroxypiperidin-1-yl)phenyl)-1H-indazol-5-yl)-2-(pyrrolidin-1-yl)-2-(thiophen-3-yl)acetamide], for which the IC50 on Aurora B and at human PLK4 was not above 5 µM in each case.
As to `CN1CCC(Oc2ccc(-c3n[nH]c4ccc(NC(=O)C(c5ccccn5)C5CCCC5)cc34)cc2)CC1` (centres unmarked) [Example A179, 2-cyclopentyl-N-(3-(4-((1-methylpiperidin-4-yl)oxy)phenyl)-1H-indazol-5-yl)-2-(pyridin-2-yl)acetamide], the half-inhibitory concentration (IC50) on Aurora B and at human PLK4 was not above 5 µM each time.
With `CN(C)CC(=O)N1CCC(Oc2ccc(-c3n[nH]c4ccc(C(=O)NC(c5ccccc5)C5CC5)cc34)cc2)CC1` (centres unmarked) [Example A130, N-(cyclopropyl(phenyl)methyl)-3-(4-((1-(2-(dimethylamino)acetyl)piperidin-4-yl)oxy)phenyl)-1H-indazole-5-carboxamide], the IC50 at Aurora B and on human PLK4 was not above 5 µM each time.
`CN1CCC(Oc2ccc(-c3n[nH]c4ccc(C(=O)NC(c5ccccn5)C5CCCC5)cc34)cc2)CC1` (centres unmarked) [Example A208, N-(cyclopentyl(pyridin-2-yl)methyl)-3-(4-((1-methylpiperidin-4-yl)oxy)phenyl)-1H-indazole-5-carboxamide]: the 50% inhibitory concentration (IC50) on Aurora B and at human PLK4 was not above 5 µM each time.
Regarding `CN1CCC(Oc2ccc(-c3n[nH]c4ccc(C(=O)NCC(c5ccccc5)C5CCCC5)cc34)cc2)CC1` (centres unmarked) [Example A207, N-(2-cyclopentyl-2-phenylethyl)-3-(4-((1-methylpiperidin-4-yl)oxy)phenyl)-1H-indazole-5-carboxamide], the IC50 on Aurora B, on human PLK4 and on human TTK was not above 5 µM throughout.
Regarding `O=CN1CCC(Oc2ccc(-c3n[nH]c4ccc(C(=O)N[C@H](c5ncccc5Cl)C5CC5)cc34)cc2)CC1` [Example A212, (S)—N-((3-chloropyridin-2-yl)(cyclopropyl)methyl)-3-(4-((1-formylpiperidin-4-yl)oxy)phenyl)-1H-indazole-5-carboxamide], the IC50 on Aurora B, on human PLK4 and on human TTK was not above 5 µM each time.
Regarding `O=C(NC(c1ccsc1)C1CC1)c1ccc2[nH]nc(-c3ccc(N4CCC(O)CC4)cc3)c2c1` (centres unmarked) [Example A101, N-(cyclopropyl(thiophen-3-yl)methyl)-3-(4-(4-hydroxypiperidin-1-yl)phenyl)-1H-indazole-5-carboxamide], the IC50 on Aurora B and on human PLK4 was not above 5 µM each time.
On to `CN1CCC(Oc2ccc(-c3n[nH]c4ccc(NC(=O)C(c5ccsc5)N5CCCC5)cc34)cc2)CC1` (centres unmarked) [Example A7, N-(3-(4-((1-methylpiperidin-4-yl)oxy)phenyl)-1H-indazol-5-yl)-2-(pyrrolidin-1-yl)-2-(thiophen-3-yl)acetamide], for which the IC50 on Aurora B and on human PLK4 was not above 5 µM each time.
`O=C(N[C@H](c1ncccc1Cl)C1CC1)c1ccc2[nH]nc(-c3ccc(OC4CCN(C5COC5)CC4)cc3)c2c1` [Example A216, (S)—N-((3-chloropyridin-2-yl)(cyclopropyl)methyl)-3-(4-((1-(oxetan-3-yl)piperidin-4-yl)oxy)phenyl)-1H-indazole-5-carboxamide]: the IC50 at human PLK4 and on human TTK was not above 5 µM throughout.
On to `CN1CCC(Oc2ccc(-c3n[nH]c4ccc(C(=O)NC(c5ccccc5)C5CC5)cc34)cc2)CC1` (centres unmarked) [Example A24, N-(cyclopropyl(phenyl)methyl)-3-(4-((1-methylpiperidin-4-yl)oxy)phenyl)-1H-indazole-5-carboxamide], for which the IC50 at Aurora B and at human PLK4 was not above 5 µM throughout.
As for `CN1CCN(c2ccc(-c3n[nH]c4ccc(NC(=O)C(c5ccsc5)N5CCCC5)cc34)cc2)C(=O)C1` (centres unmarked) [Example A94, N-(3-(4-(4-Methyl-2-oxopiperazin-1-yl)phenyl)-1H-indazol-5-yl)-2-(pyrrolidin-1-yl)-2-(thiophen-3-yl)acetamide], the IC50 on human PLK4 and on human TTK was not above 5 µM each time.

For orientation: IC50 means the concentration at which inhibition is half-maximal.
